For the test, the system named is P388 leukemia ip, CD2F1 mice, survival T/C. Put plainly: NCI In Vivo Anticancer Drug Screen. Data for tumor model P388 Leukemia (intraperitoneal) in CD2F1 (CDF1) mice. As to conditions: endpoint: median survival time, higher = longer survival. In outline: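 Mice carrying the transplanted tumor received test compound or vehicle. Survival was recorded in each group, and the value is the treated-group measurement divided by that of the vehicle-treated control group.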

Where [1] appears, read: dose: 100.0 mg/kg/injection, schedule: Q04DX003 (ip), vehicle: Klucel (hydroxypropylcellulose) (HPC).
[2] abbreviates: dose: 200.0 mg/kg/injection, schedule: Q04DX003 (ip), vehicle: Klucel (hydroxypropylcellulose) (HPC).
[3] abbreviates: dose: 60.0 mg/kg/injection, schedule: Q01DX005 (ip), vehicle: saline with Tween-80.
Where [4] appears, read: dose: 120.0 mg/kg/injection, schedule: Q01DX005 (ip), vehicle: saline with Tween-80.
[5] abbreviates: dose: 240.0 mg/kg/injection, schedule: Q01DX005 (ip), vehicle: saline with Tween-80.
Where [6] appears, read: dose: 50.0 mg/kg/injection, schedule: Q01DX009 (ip), vehicle: saline with Tween-80.
[7] abbreviates: dose: 100.0 mg/kg/injection, schedule: Q01DX009 (ip), vehicle: saline with Tween-80.
Where [8] appears, read: dose: 200.0 mg/kg/injection, schedule: Q01DX009 (ip), vehicle: saline with Tween-80.
[9] abbreviates: dose: 50.0 mg/kg/injection, schedule: Q01DX005 (ip), vehicle: Klucel (hydroxypropylcellulose) (HPC).
[10] abbreviates: dose: 100.0 mg/kg/injection, schedule: Q01DX005 (ip), vehicle: Klucel (hydroxypropylcellulose) (HPC).

Structures are written as SMILES. Values joined by “and” are separate entries in the source; they are usually repeats but may differ in a detail not shown here. Equal entries are not always repeated. Inconclusive results and toxic doses are left out.

This passage reports T/C results from PubChem BioAssay AID330 (DTP/NCI, 2004).

As for `CC(=O)OCC12CC(c3ccoc3)OC3CCC4C(=O)OC(CC1C)C4(C)C32` (stereo unspecified), the T/C (dose: 5.25 mg/kg/injection, schedule: Q01DX005 (ip), vehicle: Klucel (hydroxypropylcellulose) (HPC)) was 106 % of control; the T/C (dose: 10.5 mg/kg/injection, schedule: Q01DX005 (ip), vehicle: Klucel (hydroxypropylcellulose) (HPC)) was 95 % of control; the T/C (dose: 21.0 mg/kg/injection, schedule: Q01DX005 (ip), vehicle: Klucel (hydroxypropylcellulose) (HPC)) is 100 % of control; the T/C (dose: 42.0 mg/kg/injection, schedule: Q01DX005 (ip), vehicle: Klucel (hydroxypropylcellulose) (HPC)) is 93 % of control.
As for `C=Cc1ccccc1` (tested in a mixture with another compound), the T/C is 98 % of control (dose: 12.5 mg/kg/injection, schedule: Q01DX005 (ip), vehicle: saline) and 99 % of control (dose: 25.0 mg/kg/injection, schedule: Q01DX005 (ip), vehicle: saline).
Turning to `COc1ccc(/C=C\C(C)=N\NC(=S)Nc2ccc(Cl)cc2)cc1`, the T/C is, setting by setting: (dose: 100.0 mg/kg/injection, schedule: Q01DX001 (ip), vehicle: Klucel (hydroxypropylcellulose) (HPC)) 103 % of control; (dose: 200.0 mg/kg/injection, schedule: Q01DX001 (ip), vehicle: Klucel (hydroxypropylcellulose) (HPC)) 102 % of control; (dose: 400.0 mg/kg/injection, schedule: Q01DX001 (ip), vehicle: Klucel (hydroxypropylcellulose) (HPC)) 103 % of control.
Take `COc1ccc(N2CCN(/C=C3\Cc4c(F)cccc4C3=O)CC2)cc1`: the T/C reads like this: under setting [1], 97 % of control; under setting [2], 103 % of control; (dose: 400.0 mg/kg/injection, schedule: Q04DX003 (ip), vehicle: Klucel (hydroxypropylcellulose) (HPC)) 101 % of control.
For `O=C([CH-]C(=O)C(F)(F)F)c1ccco1.O=C([CH-]C(=O)C(F)(F)F)c1ccco1.O=C([CH-]C(=O)C(F)(F)F)c1ccco1.[Ru+3]`, the T/C was 100 % of control under setting [3], 97 % of control under setting [4] and 89 % of control under setting [5].
For the compound `COc1nc(N)c2c3c([nH]c2c1C#N)C(C)(C)c1ccccc1N3C`, the T/C was 96 % of control under setting [6], 100 % of control under setting [7] and 94 % of control under setting [8].
With `COCOc1c(OC)c(C2(O)C(=O)N(C)c3ccccc32)c(OCOC)c(OC)c1C1(O)C(=O)N(C)c2ccccc21` (stereo unspecified), the T/C by setting is: under setting [3], 100 % of control; under setting [4], 89 % of control; under setting [5], 88 % of control.
For `CC(C)(C)NC(=S)N/N=C/c1ccccc1O`, the T/C by setting is: (dose: 50.0 mg/kg/injection, schedule: Q01DX005 (ip), vehicle: saline with Tween-80) 108 % of control; (dose: 100.0 mg/kg/injection, schedule: Q01DX005 (ip), vehicle: saline with Tween-80) 109 % of control; (dose: 200.0 mg/kg/injection, schedule: Q01DX005 (ip), vehicle: saline with Tween-80) 107 % of control.
For `COC(CCl)(CBr)OC`, the T/C (dose: 25.0 mg/kg/injection, schedule: Q01DX009 (ip), vehicle: saline with Tween-80) was 95 % of control; the T/C under setting [6] is 97 % of control; the T/C under setting [7] is 105 % of control.
In the case of `O=C1/C(=C/c2ccccc2O)SC(=S)N1C1CC1`, the T/C was 100 % of control under setting [6], 90 % of control under setting [7] and 95 % of control under setting [8].
Turning to `COC1C(C)OC(OC2CC(C)(O)Cc3cc4c(c(O)c32)C(=O)c2c(O)cc3c(c2C4=O)OC2OC3(C)C(O)C(N(C)C)C2O)C(OC)C1(C)OC` (stereo unspecified), the T/C runs as follows: (dose: 0.6 mg/kg/injection, schedule: Q01DX009 (ip), vehicle: other) 124 % of control; (dose: 0.75 mg/kg/injection, schedule: Q04DX003 (ip), vehicle: saline) 121 % of control; (dose: 1.0 mg/kg/injection, schedule: Q01DX009 (ip), vehicle: saline) 151 % of control; (dose: 1.0 mg/kg/injection, schedule: Q04DX003 (ip), vehicle: saline) 121 % of control; (dose: 1.25 mg/kg/injection, schedule: Q01DX009 (ip), vehicle: other) 151 % of control; (dose: 1.25 mg/kg/injection, schedule: Q04DX003 (ip), vehicle: other) 124 % of control. In addition, the T/C runs as follows: (dose: 1.5 mg/kg/injection, schedule: Q01DX009 (ip), vehicle: saline) 160 % of control; (dose: 2.0 mg/kg/injection, schedule: Q01DX009 (ip), vehicle: saline) 160 % of control; (dose: 2.5 mg/kg/injection, schedule: Q01DX009 (ip), vehicle: saline) 174 % of control; (dose: 2.5 mg/kg/injection, schedule: Q04DX003 (ip), vehicle: other) 153 % of control; (dose: 3.0 mg/kg/injection, schedule: Q01DX009 (ip), vehicle: saline) 169 % of control; (dose: 4.0 mg/kg/injection, schedule: Q01DX009 (ip), vehicle: saline) 180 % of control. Further, the T/C by setting is: (dose: 5.0 mg/kg/injection, schedule: Q01DX009 (ip), vehicle: saline) 193 % of control; (dose: 5.0 mg/kg/injection, schedule: Q04DX003 (ip), vehicle: saline) 150 % of control; (dose: 6.0 mg/kg/injection, schedule: Q04DX003 (ip), vehicle: water) 153 % of control; (dose: 10.0 mg/kg/injection, schedule: Q04DX003 (ip), vehicle: other) 165 % of control; (dose: 10.0 mg/kg/injection, schedule: Q04DX003 (ip), vehicle: saline with Tween-80) 157 % of control; (dose: 10.0 mg/kg/injection, schedule: Q04DX003 (ip), vehicle: saline) 156 % of control. The T/C by setting is: (dose: 10.0 mg/kg/injection, schedule: Q04DX003 (ip), vehicle: water) 157 % of control; (dose: 12.0 mg/kg/injection, schedule: Q04DX003 (ip), vehicle: saline) 158 % of control; (dose: 12.5 mg/kg/injection, schedule: Q01DX001 (sc), vehicle: other) 103 % of control; (dose: 15.0 mg/kg/injection, schedule: Q04DX003 (ip), vehicle: saline with Tween-80) 150 % of control; (dose: 16.0 mg/kg/injection, schedule: Q04DX003 (ip), vehicle: saline) 112 % of control; (dose: 20.0 mg/kg/injection, schedule: Q04DX003 (ip), vehicle: other) 124 % of control. Also, the T/C runs as follows: (dose: 25.0 mg/kg/injection, schedule: Q01DX001 (ip), vehicle: other) 157 % of control and 175 % of control; (dose: 25.0 mg/kg/injection, schedule: Q01DX001 (sc), vehicle: other) 100 % of control and 102 % of control; (dose: 50.0 mg/kg/injection, schedule: Q01DX001 (sc), vehicle: other) 103 % of control and 105 % of control; (dose: 100.0 mg/kg/injection, schedule: Q01DX001 (sc), vehicle: other) 99 % of control; (dose: 625.0 micrograms/kg/injection, schedule: Q01DX009 (ip), vehicle: other) 118 % of control; (dose: 1250.0 micrograms/kg/injection, schedule: Q01DX009 (ip), vehicle: other) 157 % of control. For the same compound, the T/C reads like this: (dose: 2500.0 micrograms/kg/injection, schedule: Q01DX009 (ip), vehicle: other) 157 % of control and 172 % of control; (dose: 5000.0 micrograms/kg/injection, schedule: Q01DX009 (ip), vehicle: other) 90 % of control.
For `O=C1C=CC(=O)C2=C1C1c3ccccc3C2c2ccccc21`, the T/C reads like this: under setting [9], 101 % of control; under setting [10], 110 % of control.
With `Nc1ccc(S(=O)(=O)CCCl)cc1`, the T/C (dose: 12.5 mg/kg/injection, schedule: Q04DX003 (ip), vehicle: Klucel (hydroxypropylcellulose) (HPC)) is 96 % of control; the T/C (dose: 25.0 mg/kg/injection, schedule: Q04DX003 (ip), vehicle: Klucel (hydroxypropylcellulose) (HPC)) is 102 % of control; the T/C (dose: 50.0 mg/kg/injection, schedule: Q04DX003 (ip), vehicle: Klucel (hydroxypropylcellulose) (HPC)) is 105 % of control; the T/C under setting [1] is 107 % of control; the T/C under setting [2] is 112 % of control.
For the compound `C(=Nc1ccc2ccc3cccc4ccc1c2c34)c1ccncc1`, the T/C is 102 % of control (dose: 25.0 mg/kg/injection, schedule: Q01DX005 (ip), vehicle: Klucel (hydroxypropylcellulose) (HPC)); 100 % of control under setting [9]; 100 % of control under setting [10]; 92 % of control (dose: 200.0 mg/kg/injection, schedule: Q01DX005 (ip), vehicle: Klucel (hydroxypropylcellulose) (HPC)).
Take `Cc1cc2c(cc1C)NS(=O)(=O)N2`: the T/C is 102 % of control under setting [3], 109 % of control under setting [4] and 102 % of control under setting [5].
